Measurements taken from patent US20200146973A1, “Pharmaceutical Composition for Oral Delivery of Hydrophobic Small Molecule Drug and Hydrophilic Small Molecule Drug Concurrently” (National Tsing Hua University, priority 2016, published 2020).
Like-named read-outs stand apart in the source and are kept apart here. Each block holds one compound with its values, some of them ahead of it.

Tests used:
RAW 264.7 cells = experiment: Uptake of emulsion containing DiO and Rhodamine B by RAW 264.7 cells (CLSM); assay type: cell-based; details: 3 hours of incubation, FIG. 12
Experimental: To understand better the route of drug delivery, RAW 264.7 cells are added the prepared emulsion containing DiO and Rhodamine B and then cultured for 3 hours. The unabsorbed emulsion is washed with PBS, and then the cells are fixed with formalin, stained, and observed with the CLSM. In addition, the rats are oral administrated with the enteric-coated gelatin capsules that contained the pharmaceutical composition of the present disclosure (the dose of DiO and Rhodamine B is 12 mg/kg, respectively). The animals are sacrificed 6 hours after oral administration, the MLNs are retrieved from euthanized rats, and the tissues are fixed in formalin for 4 hours at room temperature. Then the tissue was cut to size and embedded in OCT gel for frozen section and subsequent staining. The sections are finally examined by CLSM.

[1] = Lewis, rat, in vivo
Experimental: (§1) The pharmacokinetics of the pharmaceutical composition of the present disclosure is analyzed in this experiment. There are two groups, the rats are oral administered of the pharmaceutical composition of the present disclosure with 12 mg/kg of paclitaxel and 12 mg/kg of gemcitabine as the oral group, and the rats are tail intravenous injected at a dose of 12 mg/kg of paclitaxel and 12 mg/kg of gemcitabine as the I.V. group. After administration, blood of rat is collected from the tail vein at 0.5, 1, 2, 3, 4, 6, 8, 10, 12, 24, 48 hours, and plasma of rat is obtained after centrifugation. After treatment, the drug concentration is quantified by HPLC.
(§2) For quantifying gemcitabine (hereafter GEM), tetrahydrouridine (10 mM, 10 μL) is added, and 2 mL of an organic mixture (15% isopropanol in ethyl acetate) is added into 100 μL of the plasma. After mixing, the supernatant is centrifuged, dried, and then dissolved in the mobile phase to perform HPLC. Mobile phase is 0.1 M ammonium acetate:acetonitrile=98:2. For quantifying paclitaxel (hereafter PTX), 400 μL of acetonitrile is added into 100μL of plasma. After mixing well, the sample is centrifuged to remove the supernatant. Then 100 μL of ZnSO4 (10% w/v aqueous solution) is added. After mixing well, the sample is centrifuged to remove the supernatant. Then 1 mL of ethyl acetate is added. After mixing well, the sample is centrifuged to remove the supernatant, and then dried. Then the sample is dissolved in methanol to perform HPLC. Mobile phase is H2O:acetonitrile=90:10.

[2] = Pharmacokinetics in rats after I.V. injection or oral administration, plasma drug concentration quantified by HPLC
Experimental: as §1, §2

in vivo = details: Lewis, rat, 12 mg/kg
Experimental: as §1, §2

[3] = In vivo transport route by immunofluorescence staining (small intestine, MLNs, tumor; CLSM); parameters: species or system Lewis rats; details: oral capsule, DiO and Rhodamine B 12 mg/kg each, 6 hours after administration, FIG. 11
Text: In addition to the comprehensive in vitro characterization of the pharmaceutical composition of the present disclosure, determination of the biodistribution of these lipid oil drops following in vivo administration is crucial because they act at the site of accumulation. To trace the pharmaceutical composition of the present disclosure in rats, DiO and Rhodamine B are used as fluorescent model drug for hydrophobic small molecule drug and hydrophilic small molecule drug, respectively.
The animal studies involved Lewis rats with masses of approximately 250 g and are performed in compliance with the “Guide for the Care and Use of Laboratory Animals”, which was prepared by the Institute of Laboratory Animal Resources, National Research Council, and published by the National Academy Press in 1996. The Institutional Animal Care and Use Committee of National Tsing Hua University approved all studies. To prepare the enteric-coated gelatin capsules for use in this experiment, hard gelatin capsules (size 9; Torpac Inc., Fairfield, N.J., U.S.A.) are manually filled with a powdered mixture of Rhodamine B (1 mg), DiO (1 mg), capric acid (18 mg), citric acid (6 mg), and sodium bicarbonate (5 mg), as per the manufacturer's instructions. […]

[4] = Ex vivo IVIS biodistribution of fluorescent model drugs in major organs; parameters: species or system rats; details: FIG. 14
Experimental: Further, ex vivo imaging of the distributions of different drugs in the major organs that are isolated from the test rats was conducted using an in vivo imaging system (IVIS). The rats are oral administrated a dose of 12 mg/kg of DiO and 12 mg/kg of Rhodamine B as an experiment group, and tail intravenous injected the same dose of DiO and Rhodamine B as an I.V. control group. In addition, the rats are intraperitoneally injected cycloheximide 1 hour before oral administration to block lymphatic absorption as a control group. The animals are sacrificed 6 hours after the feeding and 1 hour after the tail intravenous injection. At the time of maximum accumulation, the rats are sacrificed to remove the main organs (heart, lung, liver, spleen, pancreas and kidney) and the distribution of the fluorescent dye is observed by IVIS.

[5] = Lewis, rat, plasma, iv, 12 mg/kg
[6] = Lewis, rat, plasma, po, 12 mg/kg
[7] = Oral group, 12 mg/kg each, rat plasma

Compound: CCCCCCCCCCCCCCCCCCN1/C(=C\C=C\c2oc3ccccc3[n+]2CCCCCCCCCCCCCCCCCC)Oc2ccccc21.[O-][Cl+3]([O-])([O-])[O-] [DiO]
uptake into cells (colocalization of DiO and DAPI fluorescence) (RAW 264.7 cells): can be uptake into RAW 264.7 cells

time post-administration after which the concentration cannot be detected ([1]; iv): 6 h | AUMC ([1]; iv, 12 mg/kg): 135.11 μg h^2/mL | time post-administration within which the concentration still can be detected ([1]; po): ≤ 12 h | AUMC ([1]; po, 12 mg/kg): 131.19 μg h^2/mL | AUC [2, 5]: 41100 ng·h/mL | Cmax [2, 5]: 16700 ± 4380 ng/mL | MRT [2, 5]: 3.28 h | clearance [2, 5]: 4 mL/min/kg | half-life [2, 5]: 2.36 h | bioavailability ([2]; Lewis, rat, plasma, oral, 12 mg/kg): 56.8% | AUC [2, 6]: 23400 ng·h/mL | Cmax [2, 6]: 3620 ± 1380 ng/mL | MRT [2, 6]: 5.61 h | half-life [2, 6]: 6.13 h | CL [2, 7]: 7.17 mL/min/kg | Tmaxz [2, 7]: 4.00 h | time at which the concentration reaches the highest peak, post-administration ([2]; Oral group, FIG. 15B): 4 h
Compound: Nc1ccn([C@@H]2O[C@H](CO)[C@@H](O)C2(F)F)c(=O)n1 [GEM, gemcitabine]

bioavailability (in vivo): 59.2% | AUC (in vivo; iv): 23600 ng·h/mL | Cmax (in vivo; iv): 20000 ± 5010 ng/mL | MRT (in vivo; iv): 1.66 h | clearance (in vivo; iv): 7 mL/min/kg | half-life (in vivo; iv): 10.2 h | AUC (in vivo; po): 7250 ng·h/mL | Cmax (in vivo; po): 1010 ± 970 ng/mL | MRT (in vivo; po): 7.22 h | half-life (in vivo; po): 14.4 h | time post-administration after which the concentration cannot be detected ([1]; iv): 6 h | AUMC ([1]; iv, 12 mg/kg): 39.21 μg h^2/mL | time at which the concentration reaches the highest peak, post-administration ([1]; po): 6 h | time post-administration within which the concentration still can be detected ([1]; po): ≤ 12 h | AUMC ([1]; po, 12 mg/kg): 52.32 μg h^2/mL | CL ([1]; po, 12 mg/kg): 23 mL/min/kg | Tmaxz ([1]; po, 12 mg/kg): 8.00 h
Compound: CC(=O)O[C@H]1C(=O)[C@@]2(C)[C@H]([C@H](OC(=O)c3ccccc3)[C@]3(O)C[C@H](OC(=O)[C@H](O)[C@@H](NC(=O)c4ccccc4)c4ccccc4)C(C)=C1C3(C)C)[C@]1(OC(C)=O)CO[C@@H]1C[C@@H]2O [PTX, paclitaxel]

Compound: CCN(CC)c1ccc2c(-c3ccccc3C(=O)O)c3ccc(=[N+](CC)CC)cc-3oc2c1.[Cl-] [Rhodamine B]
location of fluorescent signals (immunofluorescence staining) [3]: located on the lateral surfaces of the villi, Peyer's patches and tumor | organ accumulation (ex vivo IVIS) ([4]; I.V. control group, tail intravenous injection 12 mg/kg each, 1 hour): accumulated in liver, pancreas and kidneys | organ accumulation (ex vivo IVIS) ([4]; control group, cycloheximide intraperitoneally 1 hour before oral administration, 6 hours): accumulated in liver, pancreas and the lateral surfaces of intestinal tract | organ accumulation (ex vivo IVIS) ([4]; experiment group, oral 12 mg/kg each, 6 hours): accumulated in liver, pancreas and the lateral surfaces of intestinal tract
